Experimental findings from patent US8410284B2, “Cyclic benzimidazole derivatives useful as anti-diabetic agents” (Merck Sharp & Dohme Corp, priority 2008, dated 2013) are described below.

For orientation: EC50 means the concentration giving half of the maximal effect.

The test concerns the target recombinant human AMPK complex 1 (containing α1β1γ1) (Homo sapiens, UniProt Q13131+Q9Y478). Put plainly: In vitro AMPK activation assay (AMPKSAMSF). It counts as biochemical. To be noted: recombinant human AMPK complex 1 (α1β1γ1); for % Maximum AMP Activation of human AMPK Complex 1: basal activity subtracted; for Emax: read-out: maximum AMP activation. On the procedure:
AMPKSAMSF (In Vitro AMPK Activation Assay)
The recombinant human AMPK complex 1 (containing α1β1γ1) was obtained from baculovirus expression system. Recombinant viruses were generated by cotransfection of AMPK/pBacPak9 clones with Baculogold baculovirus DNA (Pharmingen) in spodoptera frugiperda 21 cells according to the manufacturer's instructions. Each round of virus amplification was performed for 5 days in Grace's medium containing 10% serum. Virus that had been subjected to three rounds of amplification was used for all protein production procedures. To express the AMPK complex, sf21 cells were adapted to serum free medium (SF900 II, Invitrogen) by sequential dilution from serum containing stocks into SF900 II medium and maintained in shaker flasks at 90 rpm at 27° C. The recombinant AMPK enzyme complex was produced by triple infection, one recombinant virus for each of the subunits, in sf21 cells under serum free conditions. Cells were infected in log phase, 1×10^6 cells/ml, at a multiplicity of infection of ˜5. Cells were harvested by centrifugation at 10,000×g for 15 minutes after 72 hours of infection with viruses. The insect cell pellet from 2 liters of culture was resuspended in 50 ml lysis buffer (20 mM Tris-HCl, 50 mM NaCl, 50 mM NaF, 30 mM Na PPi, 0.25 M sucrose, 10 mM ZnCl2, 2 mM DTT, 0.4 mg/ml digitonin) and subjected to two cycles of freeze-thaw lysis in a dry-ice ethanol bath. Insoluble material was removed by centrifugation at 10,000×g and the supernatant was fractionated with use of polyethylene glycol (PEG). The protein fraction precipitating between 2.5 and 6% PEG was used for further purification using a Blue-Sepharose step (Zhou et al, J. Clin. Invest. 108, 1167-1174, 2001).
The total in vitro AMPK activation assay volume is 50 μl in a 96-well plate. The reaction mixture contained 100 μM ATP (0.5 μCi ^33P-ATP per reaction), and 50 μM SAMS (HMRSAMSGLHLVKRR) in a buffer (20 mM HEPES, pH 7.0, 5 mM MgCl2, 0.01% Brij35). The reaction was initiated with addition of the enzyme. After 30-minute incubation at 30° C., the reaction was stopped by addition of 80 μl 1% H3PO4. Aliquots (100 μl) were transferred to 96-well MultiScreen plates (MAPHNOB50; Millipore Corp., Bedford, Mass., USA). The plate was washed three times with 1% H3PO4 followed by detection in a Top-count. The counts per minute from the basal activity (the reaction without activator) was subtracted from each well and the data were expressed as % maximum AMP activation followed by EC50 calculation.

Molecules are shown by their SMILES.

recombinant human AMPK complex 1 (containing α1β1γ1), sequence (Q13131 whole entry): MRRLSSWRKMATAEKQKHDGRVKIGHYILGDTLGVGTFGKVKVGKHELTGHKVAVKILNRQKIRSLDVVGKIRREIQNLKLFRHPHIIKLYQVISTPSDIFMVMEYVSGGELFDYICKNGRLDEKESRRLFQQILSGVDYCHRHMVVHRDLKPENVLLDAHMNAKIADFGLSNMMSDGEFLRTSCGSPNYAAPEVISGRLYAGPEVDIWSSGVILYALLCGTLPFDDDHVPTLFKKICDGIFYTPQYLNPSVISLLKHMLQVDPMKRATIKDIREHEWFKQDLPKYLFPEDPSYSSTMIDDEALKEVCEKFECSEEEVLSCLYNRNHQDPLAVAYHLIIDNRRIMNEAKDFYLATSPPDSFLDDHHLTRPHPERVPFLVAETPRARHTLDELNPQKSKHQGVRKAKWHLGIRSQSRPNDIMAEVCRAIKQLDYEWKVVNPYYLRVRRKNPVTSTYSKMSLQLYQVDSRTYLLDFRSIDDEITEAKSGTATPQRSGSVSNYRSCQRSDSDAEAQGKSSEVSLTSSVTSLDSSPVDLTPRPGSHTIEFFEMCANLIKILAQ
recombinant human AMPK complex 1 (containing α1β1γ1), sequence (Q9Y478 whole entry): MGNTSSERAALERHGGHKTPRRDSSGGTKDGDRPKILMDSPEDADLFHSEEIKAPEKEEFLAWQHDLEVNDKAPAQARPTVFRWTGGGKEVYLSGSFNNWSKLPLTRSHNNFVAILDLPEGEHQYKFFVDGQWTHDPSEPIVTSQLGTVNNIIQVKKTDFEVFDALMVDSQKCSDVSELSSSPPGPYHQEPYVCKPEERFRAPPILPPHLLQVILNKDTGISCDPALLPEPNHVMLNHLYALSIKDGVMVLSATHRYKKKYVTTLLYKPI
recombinant human AMPK complex 1 (containing α1β1γ1), sequence (P54619 whole entry partner): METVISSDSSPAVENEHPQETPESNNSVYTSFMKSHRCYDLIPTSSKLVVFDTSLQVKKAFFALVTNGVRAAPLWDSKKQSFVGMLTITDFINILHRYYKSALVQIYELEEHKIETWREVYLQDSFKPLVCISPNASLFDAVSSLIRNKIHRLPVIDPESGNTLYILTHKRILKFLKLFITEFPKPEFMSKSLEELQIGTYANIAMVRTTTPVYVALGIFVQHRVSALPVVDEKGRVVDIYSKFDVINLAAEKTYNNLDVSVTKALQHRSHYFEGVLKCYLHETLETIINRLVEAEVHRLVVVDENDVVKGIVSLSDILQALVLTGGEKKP

As for `Cc1ccc(Oc2nc3cc(-c4ccc(-c5ccccc5)cc4)c(Cl)cc3[nH]2)cc1P(=O)(O)O` [Example 1, ((5-(4-Biphenyl)-6-chloro-1H-benzimidazol-2-yl)oxo)-4-methylphen-3-ylphosphonic acid], the concentration giving a half-maximal response (EC50) amounted to 0.9 nM, the “% Maximum AMP Activation of human AMPK Complex 1” value (shortened to “% Maximum AMP Activation”) is 175% and the Emax was > 80%. On to `CCOC(=O)CNP(=O)(NCC(=O)OCC)c1cc(Oc2nc3cc(-c4ccc5c(ccn5C)c4)c(Cl)cc3[nH]2)ccc1C` [Example 27, {[6-Chloro-5-(1-methyl-1H-indol-5-yl)-1-H-benzimidazol-2-yl]oxo}-4-methylphen-3-ylphosphono-bis-2-amino-ethanoic acid ethyl ester], for which the Emax is > 80%. For `CCOC(=O)CNP(=O)(NCC(=O)OCC)c1cc(Oc2nc3cc(-c4ccc(C5CCCCC5)cc4)c(Cl)cc3[nH]2)ccc1C` [Example 28, {[6-Chloro-5-(4-cyclohexylphenyl)-1H-benzoimidazol-2-yl]oxo}-4-methylphen-3-ylphosphono-bis-2-amino-ethanoic acid ethyl ester], the Emax is > 80%. Take `O=[P@@]1(c2cccc(Oc3nc4cc(-c5ccc(-c6ccccc6)cc5)c(Cl)cc4[nH]3)c2)OCC[C@@H](c2cccc(Cl)c2)O1` (relative stereo) [Example 23, Trans-5-Biphenyl-4-yl-6-chloro-2-[3-4-(3-chloro-phenyl)-2-oxo-2-lambda*5*-[1,3,2]dioxaphosphinan-2-ylphenoxy]-1H-benzoimidazole]: the Emax was > 80%. Same read-out and setting: then `O=P1(c2cccc(Oc3nc4cc(-c5ccc(-c6ccccc6)cc5)c(Cl)cc4[nH]3)c2)OCCC(c2ccncc2)O1` [Example 26, Cis-5-Biphenyl-4-yl-6-chloro-2-[3-((S)-2-oxo-4-pyridin-4-yl-2lambda*5*-[1,3,2]dioxophosphinan-2-yl)-phenoxy]-1H-benzoimidazole], with > 80%. As to `Cc1ccc(Oc2nc3cc(C#Cc4ccccc4)c(Cl)cc3[nH]2)cc1P(=O)(O)O` [Example 3, ((6-Chloro-5-phenylethynyl-1H-benzimidazol-2-yl)oxo)-4-methylphen-3-ylphosphonic acid], the concentration giving a half-maximal response (EC50) is 0.7 nM, the “% Maximum AMP Activation” value came to 192% and the Emax was > 80%. Turning to `Cc1ccc(Oc2nc3cc(-c4ccc(N5CCCC5)cc4)c(Cl)cc3[nH]2)cc1P(=O)(O)O` [Example 6, {5-[6-Chloro-5-(4-pyrrolidin-1-yl-phenyl)-1H-benzoimidazol-2-yloxy]-2-methyl-phenyl}phosphonic acid], the EC50 came to 1.1 nM, the “% Maximum AMP Activation” value was determined as 223% and the Emax was > 80%.

With `O=P(O)(O)c1cccc(Oc2nc3cc(-c4ccc(N5CCOCC5)cc4)c(Cl)cc3[nH]2)c1` [Example 7, {3-[6-Chloro-5-(4-morpholin-4-yl-phenyl)-1H-benzoimidazol-2-yloxy]phenyl}phosphonic acid], the Emax was > 80%. `Cc1ccc(Oc2nc3cc(-c4ccc(-c5ccccc5)cc4)c(Cl)cc3[nH]2)cc1[P@@]1(=O)OCC[C@@H](c2ccncc2)O1` (relative stereo) [Example 22, Cis-5-Biphenyl-4-yl-6-chloro-2-[4-methyl-3-(2-oxo-4-pyridin-4-yl-2lambda*5*-[1,3,2]dioxophosphinan-2-yl)-phenoxy]-1H-benzoimidazole]: the Emax was > 80%. The same measure, in the same setting: then `O=C(c1cccc(P(=O)(O)O)c1)c1nc2cc(-c3ccc(-c4ccccc4)cc3)c(Cl)cc2[nH]1` [Example 14, {3-[(5-biphenyl-4-yl-6-chloro-1H-benzimidazol-2-yl)carbonyl]phenyl}phosphonic acid], with > 80%. The same measure, in the same setting: then `Cc1ccc(Oc2nc3cc(-c4ccc(N5CCOCC5)cc4)c(Cl)cc3[nH]2)cc1P(=O)(O)O` [Example 4, {5-[6-Chloro-5-(4-morpholin-4-yl-phenyl)-1H-benzoimidazol-2-yloxy]-2-methylphenyl}-phosphonic acid], with > 80%. Turning to `Cn1ccc2cc(-c3cc4nc(Oc5cccc(P(=O)(O)O)c5)[nH]c4cc3Cl)ccc21` [Example 16, (3-{[6-chloro-5-(1-methyl-1H-indol-5-yl)-1H-benzimidazol-2-yl]oxy}phenyl)phosphonic acid], the half-maximal effective concentration (EC50) was determined as 0.6 nM, the “% Maximum AMP Activation” value is 173% and the Emax was > 80%. As to `Cc1ccc(Oc2nc3cc(-c4ccc(N5CCOCC5)cc4)c(Cl)cc3[nH]2)cc1P(=O)(O)O` [Example 8, 5-(5-chloro-6-(4-morpholinophenyl)-1H-benzo[d]imidazol-2-yloxy)-2-methylphenylphosphonic acid], the EC50 was determined as 1.2 nM and the “% Maximum AMP Activation” value amounted to 224%.

As for `O=P(O)(O)c1cccc(C(F)(F)c2nc3cc(-c4ccc(-c5ccccc5)cc4)c(Cl)cc3[nH]2)c1` [Example 15, {3-[(5-biphenyl-4-yl-6-chloro-1H-benzimidazol-2-yl)(difluoro)methyl]phenyl}phosphonic acid], the Emax is > 80%. Take `Cc1ccc(Oc2nc3cc(-c4ccc(C5CCCCC5)cc4)c(Cl)cc3[nH]2)cc1P(=O)(O)O` [Example 5, {5-[6-Chloro-5-(4-cyclohexyl-phenyl)-1H-benzoimidazol-2-yloxy]-2-methylphenyl}phosphonic acid]: the concentration for a half-maximal effect (EC50) was 4.9 nM, the “% Maximum AMP Activation” value is 257% and the Emax was > 80%. As to `Cc1ccc(Oc2nc3cc(-c4ccc(-c5ccccc5)cc4)c(Cl)cc3[nH]2)cc1[P@@]1(=O)OCC[C@H](c2ccncc2)O1` (relative stereo) [Example 21, Trans-5-Biphenyl-4-yl-6-chloro-2-[4-methyl-3-(2-oxo-4-pyridin-4-yl-2lambda*5*-[1,3,2]dioxophosphinan-2-yl)-phenoxy]-1H-benzoimidazole], the Emax was > 80%. As to `Cc1ccc(Oc2nc3cc(-c4ccc(-c5ccccc5)cc4)c(Cl)cc3[nH]2)cc1[P@@]1(=O)OCC[C@@H](c2cccc(Cl)c2)O1` (relative stereo) [Example 20, Cis-5-Biphenyl-4-yl-6-chloro-2-[3-[4-(3-chloro-phenyl)-2-oxo-2-lambda*5*-[1,3,2]dioxaphosphinan-2-yl]4-methyl-phenoxy]-1H-benzoimidazole], the Emax was > 80%. On the same count and under the same terms, then `CCOP(C)(=O)c1cccc(Oc2nc3cc(-c4ccc(-c5ccccc5)cc4)c(Cl)cc3[nH]2)c1` (stereo not shown) [Example 17, [3-(5 Biphenyl-4-yl-6-chloro-1H-benzoimidazol-2-yloxy)-phenyl]-methyl-phosphinic acid ethyl ester], with > 80%. Regarding `Cc1ccc(Oc2nc3cc(-c4ccc(-c5ccccc5)cc4)c(Cl)cc3[nH]2)cc1[P@@]1(=O)OCC[C@H](c2cccc(Cl)c2)O1` (relative stereo) [Example 19, Trans-5-Biphenyl-4-yl-6-chloro-2-[3-[4-(3-chloro-phenyl)-2-oxo-2-lambda*5*-[1,3,2]dioxaphosphinan-2-yl]-4-methyl-phenoxy]-1H-benzoimidazole], the Emax was > 80%. As to `O=[P@@]1(c2cccc(Oc3nc4cc(-c5ccc(-c6ccccc6)cc5)c(Cl)cc4[nH]3)c2)OCC[C@@H](c2ccncc2)O1` [Example 25, Trans-5-Biphenyl-4-yl-6-chloro-2-trans-[3-((S)-2-oxo-4-pyridin-4-yl-2lambda*5*-[1,3,2]dioxophosphinan-2-yl)-phenoxy]-1H-benzoimidazole], the Emax was > 80%. On the same count and under the same terms, for `CP(=O)(O)c1cccc(Oc2nc3cc(-c4ccc(-c5ccccc5)cc4)c(Cl)cc3[nH]2)c1` [Example 18, [3-(5-Biphenyl-4-yl-6-chloro-1H-benzoimidazol-2-yloxy)-phenyl]-methyl-phosphinic acid] the value was > 80%; for `COc1ccc(C#Cc2cc3nc(Oc4ccc(C)c(P(=O)(O)O)c4)[nH]c3cc2Cl)cc1` [Example 10, 5-(5-chloro-6-(2-(4-methoxyphenyl)ethynyl)-1H-benzo[d]imidazol-2-yloxy)-2-methylphenylphosphonic acid], > 80%.

Regarding `Cc1ccc(Oc2nc3cc(-c4ccc5c(ccn5C)c4)c(Cl)cc3[nH]2)cc1P(=O)(O)O` [Example 9, 5-(5-chloro-6-(1-methyl-1H-indol-5-yl)-1H-benzo[d]imidazol-2-yloxy)-2-methylphenylphosphonic acid], the Emax is > 80%.
